Assay results: US9414998B2, “Preventing or ameliorating agent for pigmentation” (Pola Chemical Industries Inc., priority 2009, dated 2016)

Legend:
normal human melanocyte = experiment: Ultraviolet B (UVB)-induced activation inhibition test using normal human melanocyte (MTT, supernatant of UVB-irradiated keratinocytes); type: cell-based; settings: light or radiation study, UVB 5 mJ/cm^2, compound 100 mM in DMSO diluted 1,000 times, formazan production ratio, DMSO negative control irradiated with UVB = 100, average of three measurements, read-out: Melanocyte proliferation ratio Average (%)
Protocol: The suppressing effect of each of the compounds, which was exerted on the activation of melanocyte by the melanocyte activating factor produced and released from normal human keratinocyte by the ultraviolet B (UVB), was investigated by using the index of the cell proliferation function of normal human melanocyte.
Normal human keratinocyte cells (Kurabo Industries, Ltd.) were seeded by using Humedia-KG2 medium (Kurabo Industries, Ltd.) at a concentration of 10×10^4 cells/well in 24-well plate, followed by being cultured for 24 hours.
The compound to be evaluated was dissolved at a concentration of 100 mM in DMSO, which was diluted 1,000 times with Humedia-KG2 medium and used as a sample solution. As for the positive control group, tranexamic acid was dissolved at a concentration of 100 mM in DMSO, which was diluted 1,000 times with Humedia-KG2 medium and used as a positive control sample solution. As for the negative control group, DMSO was diluted 1,000 times with Humedia-KG2 medium, which was used as a negative control sample solution. A concentration, at which the cell proliferation of normal human melanocyte was not affected, was set for each of the compounds.
The medium of normal human keratinocyte was exchanged with Humedia-KG2 medium (sample solution) containing the compound at a predetermined concentration, and the cells were cultured for further 24 hours. After that, the medium was exchanged with PBS (phosphate buffered saline), and cells were irradiated with the ultraviolet B (UVB) at 5 mJ/cm^2 by using an ultraviolet lamp (FL20S•E-30/DMR, Toshiba Medical Supply Co., Ltd.) as a light source. After the ultraviolet radiation, PBS was exchanged with the sample solution. Cells were cultured for further 24 hours, and then the culture supernatant was collected.
Normal human melanocyte cells were seeded to 96-well plate by using a medium of Medium 254 (Kurabo Industries, Ltd.) so that the concentration was 3×10^4 cells/well, and the cultivation was performed for 24 hours. After that, the medium was exchanged with the culture supernatant collected from normal human keratinocyte, and the cells were cultured for further 24 hours. After the cultivation for 24 hours, the medium was exchanged with Humedia-KG2 medium containing 0.5 mg/mL of 3-(4,5-dimethyl-2-thiazoyl)-2,5-diphenyl-2H-tetrazolium bromide (MTT), and the cultivation was performed for 3 hours.
The formazan amount was determined by measuring the absorbances at 570 nm and 690 nm of cell lysate prepared with 2-propanol by means of a microplate reader (Benchmark Plus, Bio-Rad) and subtracting the absorbance at 690 nm from the absorbance at 570 nm.
The suppressing effect of each of the compounds on the melanocyte proliferation was represented by the percentage (%) as the formazan production ratio while the absorbance of the DMSO added group (negative control group) irradiated with the ultraviolet B (UVB) was assumed as 100.
It can be judged that the lower the production ratio of formazan is, the lower the melanocyte proliferation ratio is. Therefore, when the production ratio of formazan is lower, it is possible to judge that the suppressing activity of the compound to be evaluated is high with respect to the activation of melanocyte by the melanocyte activating factor produced and released by normal human keratinocyte.

pigmented guinea pigs = experiment: Ultraviolet ray-induced pigmentation inhibition test using pigmented guinea pigs; type: in vivo, guinea pig; settings: 3% (w/v) in ethanol, 30 μL once a day for 5 weeks; L* on 36th day minus L* before ultraviolet radiation; average ± standard deviation of 8 samples; solvent control −11.83 ± 0.78
Description: Skins of backs of eight pigmented guinea pigs were subjected to the hair removal and the hair shaving with electric hair clippers and shaver, and these sites were covered with black cloths each having four radiation windows of 2×2 cm in total disposed at two upper left and right positions and two lower left and right positions respectively. After that, the ultraviolet ray was radiated at 300 mJ/cm^2 by using FL20S•E30 lamp as the light source. This operation was repeatedly performed on 1st, 3rd, 5th, and 8th days of the test to induce the pigmentation at the four test sites. The compound to be evaluated (Compound 1) was dissolved and prepared in ethanol so that the concentration was 3% (w/v). Ethanol was applied as the solvent control group. The application of each of the compounds to be evaluated was started from the time of completion of the ultraviolet radiation on the 1st day of the test. Each of the compounds to be evaluated was applied in an amount of 30 μL once a day to the predetermined test sites, and this procedure was continuously carried out for 5 weeks (until 35th day of the test). […]

SMILES	activity at 100 µM (normal human melanocyte) [%]	ΔL* value (pigmented guinea pigs)
O=C(N[C@@H](CO)C(=O)O)c1ccccc1 [Compound 2, N-benzoyl-serine]	60.9	–
COCC(NC(=O)c1ccccc1)C(=O)O (racemic) [Compound 16, N-benzoyl-O-methylserine]	65.5	–
COCC(NC(=O)c1ccc2ccccc2c1)C(=O)O (racemic) [Compound 13, N-(2-naphthoyl)-O-methylserine]	80.3	–
Cc1ccc(C(=O)N[C@@H](CO)C(=O)O)cc1 [Compound 1, N-(p-methylbenzoyl)-L-serine]	57	−9.98 ± 0.71
O=C(N[C@@H](CO)C(=O)O)c1ccc(C(F)(F)F)cc1 [Compound 8, N-(p-trifluoromethylbenzoyl)serine]	53.9	–
O=C(N[C@@H](CO)C(=O)O)c1ccc(F)cc1 [Compound 4, N-(p-fluorobenzoyl)serine]	55.3	–
O=C(N[C@@H](CO)C(=O)O)c1ccc(-c2ccccc2)cc1 [Compound 14, N-(4-phenylbenzoyl)serine]	75	–
CC(=O)OC[C@H](NC(=O)c1ccc(C)cc1)C(=O)O [Compound 11, N-(p-methylbenzoyl)-O-acetylserine]	71.8	–
COc1ccc(C(=O)N[C@@H](CO)C(=O)O)cc1 [Compound 5, N-(p-methoxybenzoyl)serine]	63.4	–
Cc1ccc(C(=O)NC(CO)C(=O)O)cc1 (racemic) [Compound 3, N-(p-methylbenzoyl)serine]	61.6	–
Cc1ccc(C(=O)NC(CO)C(=O)O)cc1 (stereo not drawn) [Compound 15, N-(p-methylbenzoyl)serine]	60.2	–
COC(=O)[C@H](CO)NC(=O)c1ccc2ccccc2c1 [Compound 12, N-(2-naphthoyl)serine methyl ester]	83.1	–
CCOC(=O)[C@H](CO)NC(=O)c1ccc(C)cc1 [Compound 17, N-(p-methylbenzoyl)serine ethyl ester]	73.6	–
NC[C@H]1CC[C@H](C(=O)O)CC1 [Tranexamic acid, tranexamic acid, reference compound]	82	–
CCc1ccc(C(=O)N[C@@H](CO)C(=O)O)cc1 [Compound 7, N-(p-ethylbenzoyl)serine]	65.1	–
COCC(NC(=O)c1ccc(C)cc1)C(=O)O (racemic) [Compound 9, N-(p-methylbenzoyl)-O-methylserine]	62.3	–
O=C(N[C@@H](CO)C(=O)O)c1ccc2ccccc2c1 [Compound 10, N-(2-naphthoyl)serine]	82.4	–
